Laboratory results reported in patent US20120128705A1, “C6ORF167 PEPTIDES AND VACCINES CONTAINING THE SAME” (OncoTherapy Science, Inc., priority 2009, published 2012).
Ends that are not written are not given here.

Tests used:
peptide-pulsed A24LCL [1] = test: IFN-gamma ELISPOT assay on CTLs induced with peptide (HLA-A*2402); assay type: cell-based, human; settings: CTLs from HLA-A*2402 positive donor, 3 rounds of stimulation, day 21; vs control wells without peptide
From the text: Monocyte-derived dendritic cells (DCs) were used as antigen-presenting cells (APCs) to induce cytotoxic T lymphocyte (CTL) responses against peptides presented on human leukocyte antigen (HLA). DCs were generated in vitro as described elsewhere (Nakahara S et al., Cancer Res 2003 Jul. 15, 63(14): 4112-8). Specifically, peripheral blood mononuclear cells (PBMCs) isolated from a normal volunteer (HLA-A*2402 positive) by Ficoll-Plaque (Pharmacia) solution were separated by adherence to a plastic tissue culture dish (Becton Dickinson) so as to enrich them as the monocyte fraction. The monocyte-enriched population was cultured in the presence of 1,000 U/ml of granulocyte-macrophage colony-stimulating factor (GM-CSF) (R&D System) and 1,000 U/ml of interleukin (IL)-4 (R&D System) in AIM-V Medium (Invitrogen) containing 2% heat-inactivated autologous serum (AS). After 7 days of culture, the cytokine-induced DCs were pulsed with 20 micro-g/ml of each of the synthesized peptides in the presence of 3 micro-g/ml of beta 2-microglobulin for 3 hrs at 37 degrees C. in AIM-V Medium. The generated cells appeared to express DC-associated molecules, such as CD80, CD83, CD86 and HLA class II, on their cell surfaces (data not shown). These peptide-pulsed DCs were then inactivated by X-irradiation (20 Gy) and mixed at a 1:20 ratio with autologous CD8+ T cells, obtained by positive selection with CD8 positive Isolation Kit (Dynal). These cultures were set up in 48-well plates (Corning); each well contained 1.5×10^4 peptide-pulsed DCs, 3×10^5 CD8+ T cells and 10 ng/ml of IL-7 (R&D System) in 0.5 ml of AIM-V/2% AS medium. Three days later, these cultures were supplemented with IL-2 (CHIRON) to a final concentration of 20 IU/ml. On days 7 and 14, the T cells were further stimulated with the autologous peptide-pulsed DCs. The DCs were prepared each time by the same way described above. CTL was tested against peptide-pulsed A24LCL cells after the 3rd round of peptide stimulation on day 21 (Tanaka H et al., Br J Cancer 2001 Jan. 5, 84(1): 94-9; Umano Y et al., Br J Cancer 2001 Apr. 20, 84(8): 1052-7; Uchida N et al., Clin Cancer Res 2004 Dec. 15, 10(24): 8577-86; Suda T et al., Cancer Sci 2006 May, 97(5): 411-9; Watanabe T et al., Cancer Sci 2005 August, 96(8): 498-506).
(§1) To examine specific CTL activity, interferon (IFN)-gamma enzyme-linked immunospot (ELISPOT) assay and IFN-gamma enzyme-linked immunosorbent assay (ELISA) were performed. Specifically, peptide-pulsed A24LCL (1×10^4/well) was prepared as stimulator cells. Cultured cells in 48 wells were used as responder cells. IFN-gamma ELISPOT assay and IFN-gamma ELISA assay were performed under manufacture procedure.

peptide-pulsed A24LCL [2] = test: IFN-gamma ELISA assay of CTL lines (HLA-A*2402); assay type: cell-based, human; settings: target cells pulsed with corresponding peptide vs without peptide pulse
Protocol: CTLs were expanded in culture using the method similar to the one described by Riddell et al. (Walter E A et al., N Engl J Med 1995 Oct. 19, 333(16): 1038-44; Riddell S R et al., Nat Med 1996 February, 2(2): 216-23). A total of 5×10^4 CTLs were suspended in 25 ml of AIM-V/5% AS medium with 2 kinds of human B-lymphoblastoid cell lines, inactivated by Mitomycin C, in the presence of 40 ng/ml of anti-CD3 monoclonal antibody (Pharmingen). One day after initiating the cultures, 120 IU/ml of IL-2 were added to the cultures. The cultures were fed with fresh AIM-V/5% AS medium containing 30 IU/ml of IL-2 on days 5, 8 and 11 (Tanaka H et al., Br J Cancer 2001 Jan. 5, 84(1): 94-9; Umano Y et al., Br J Cancer 2001 Apr. 20, 84(8): 1052-7; Uchida N et al., Clin Cancer Res 2004 Dec. 15, 10(24): 8577-86; Suda T et al., Cancer Sci 2006 May, 97(5): 411-9; Watanabe T et al., Cancer Sci 2005 August, 96(8): 498-506).
as §1

[3] = system: COS7 cells transfected with C6orf167 and HLA-A*2402; test: Specific CTL activity against target cells exogenously expressing C6orf167 and HLA-A*2402; assay type: cell-based, African green monkey; settings: for Specific CTL activity against control COS7 cells: COS7 transfected with either full length C6orf167 or HLA-A*2402 alone; for Specific CTL activity against COS7 cells expressing both C6orf167 and HLA-A*2402: CTL lines raised by the peptide as effector cells
From the text: The cDNA encoding an open reading frame of target genes or HLA-A*2402 was amplified by PCR. The PCR-amplified product was cloned into pCAGGS vector. The plasmids were transfected into COS7, which is the target genes and HLA-A24-negative cell line, using lipofectamine 2000 (Invitrogen) according to the manufacturer's recommended procedures. After 2 days from transfection, the transfected cells were harvested with versene (Invitrogen) and used as the target cells (5×10^4 cells/well) for CTL activity assay.
The established CTL lines raised against these peptides were examined for their ability to recognize target cells that endogenously express C6orf167 and HLA-A*2402 molecule. Specific CTL activity against COS7 cells which transfected with both the full length of C6orf167 and HLA-A*2402 molecule gene (a specific model for the target cells that exogenously express C6orf167 and HLA-A*2402 gene) was tested using the CTL lines raised by corresponding peptide as the effecter cells. COS7 cells transfected with either full length of C6orf167 genes or HLA-A*2402 were prepared as controls.

peptide-pulsed A24LCL [4] = test: IFN-gamma ELISA assay of CTL clones (HLA-A*2402); assay type: cell-based, human; settings: clones by limiting dilution; target cells pulsed with peptide
Protocol: The dilutions were made to have 0.3, 1, and 3 CTLs/well in 96 round-bottomed micro titer plate (Nalge Nunc International). CTLs were cultured with 1×10^4 cells/well of 2 kinds of human B-lymphoblastoid cell lines, 30 ng/ml of anti-CD3 antibody, and 125 U/ml of IL-2 in a total of […] of AIM-V Medium containing 5% AS. 50 micro-1/well of IL-2 were added to the medium 10 days later so to reach a final concentration of 125 U/ml IL-2. CTL activity was tested on the 14th day, and CTL clones were expanded using the same method as described above (Uchida N et al., Clin Cancer Res 2004 Dec. 15, 10(24): 8577-86; Suda T et al., Cancer Sci 2006 May, 97(5): 411-9; Watanabe T et al., Cancer Sci 2005 August, 96(8): 498-506).
as §1

| Substance | Peptide specific CTL activity: IFN-gamma production by ELISPOT (peptide-pulsed A24LCL [1]) | IFN-gamma production of CTL lines by ELISA (peptide-pulsed A24LCL [2]) | Specific CTL activity against control COS7 cells [3] | Specific CTL activity against COS7 cells expressing both C6orf167 and HLA-A*2402 [3] | IFN-gamma production of CTL clones by ELISA (peptide-pulsed A24LCL [4]) |
| --- | --- | --- | --- | --- | --- |
| IYIDgVQEVF (IYIDGVQEVF; not fully specified; printed as IYIDgVQEVF) [SEQ ID NO: 33] | potent IFN-gamma production | potent IFN-gamma production | no significant specific CTL activity | potent CTL activity | – |
| LVLEILYML [SEQ ID NO: 30] | potent IFN-gamma production | potent IFN-gamma production | – | – | Potent IFN-gamma productions |
| LYIGHLSEL [SEQ ID NO: 2] | potent IFN-gamma production | potent IFN-gamma production | no significant specific CTL activity | potent CTL activity | Potent IFN-gamma productions |
| MYLHCCLTL [SEQ ID NO: 4] | potent IFN-gamma production | potent IFN-gamma production | – | – | Potent IFN-gamma productions |
| NFFSLFLLL [SEQ ID NO: 16] | potent IFN-gamma production | potent IFN-gamma production | – | – | Potent IFN-gamma productions |
| RYYYQVYSI [SEQ ID NO: 9] | potent IFN-gamma production | potent IFN-gamma production | no significant specific CTL activity | potent CTL activity | Potent IFN-gamma productions |
| VYGHQFMNL [SEQ ID NO: 7] | potent IFN-gamma production | potent IFN-gamma production | no significant specific CTL activity | potent CTL activity | Potent IFN-gamma productions |
